The source of these data is a melting point compilation (Tetko et al.; mined from patent text by program, amines drawn as free bases though some values may be those of a salt).

Each structure is given as a SMILES string.

What is called melting point is the temperature of the solid-liquid transition. On to `N#Cc1cccc(NC(=O)NC2N=C(CN3CCOCC3)c3ccccc3NC2=O)c1` (stereo not drawn), for which the melting point lay within 249 to 250 °C. `c1cncc(-c2cc(Oc3ccc4cccnc4c3)ncn2)c1`: the melting point lay within 155 to 158 °C. For `COc1cccc(Cl)c1C1C(=O)NC(C)(C(C)C)C1=O` (stereo not drawn) the value was 172 to 174 °C; for `COc1ccccc1S(=O)C1CC(=O)N1CC(=O)CCc1ccccc1` (stereo not drawn), 129 to 131 °C; for `Cc1ccc(N2C(=O)C(O)=C(C(=O)c3ccc(C(C)C)cc3)C2c2ccc(C(C)C)cc2)cn1` (stereo not drawn), 252 to 254 °C.

For `OCCn1cc(-c2ccc3nnn(Cc4ccc(F)cc4)c3n2)cn1`, the melting point lay within 204 to 206 °C. For `CC(C)C(=O)C(=Cc1ccccc1)C(=O)Nc1ccccc1` the value was 144 to 154 °C; for `Cn1c(C(F)(F)F)cc(=O)n(Cc2cc(Cl)cc(Cl)c2Cl)c1=O`, 128 to 130 °C. For `CNC(=O)CCCCc1csc(NC(N)=NCC(F)(F)F)n1` the value was 122 to 126 °C; for `OCCCc1ccc(Sc2ccc(CCCO)cc2C(F)(F)F)c(C(F)(F)F)c1`, 96 to 102 °C. Next, `NC(=O)N(O)CC=Cc1ccccc1Sc1ccc(Cl)cc1`: 126 to 128 °C. Consider `O=C(Nc1cc(Cl)ccc1Oc1ccc(Cl)cc1)c1ccncc1`, for which the melting point lay in the range of 214 to 215 °C. For `CCCCN(Cc1ccc(-c2ccccc2-c2nnnn2C(c2ccccc2)(c2ccccc2)c2ccccc2)cc1)c1ncccc1C(=O)OCC` the value was 90 to 94 °C.

On to `CNc1ccsc1C(=O)OC`, for which the melting point was in the range of 54 to 57 °C. Regarding `CC(=O)c1cc(C#N)c(OCc2ccccc2)nc1C`, the melting point was in the range of 94 to 99 °C. In turn, `Cc1cc(C)nc(Oc2cccc(Oc3ncc(Cl)cn3)c2)n1` had a melting point of 142 °C. In turn, `Cc1ccc(C(=O)NC(NC(=S)Nc2cccc(F)c2F)C(F)(F)F)cc1` (stereo not drawn) showed a melting point of 210 to 211 °C. For `OCCCN1CCN(c2ccccc2OCC(F)(F)F)CC1` the value was 94 to 96 °C; for `CC(O)(c1cccc(C(F)(F)F)c1)c1cc2cccc(-c3cccc(C(=O)NCCO)c3)c2s1` (stereo not drawn), 176 to 177 °C; for `C=CCNc1nc(N)nc2c1ncn2C1C=CC(CO)C1` (stereo not drawn), 181 to 183 °C. Next, `COC(=O)c1ccc(-c2ccc(-c3cn([C@H]4CN5CCC4CC5)nn3)s2)cc1F`: 250 °C. `CCCCCCCCCCCCCCCC(=O)Nc1cccc(C(=O)O)c1C` yielded a melting point of 163 to 165 °C. Next, `COc1ccc(CCNCC(O)c2ccc(OCc3ccccc3)cc2OCc2ccccc2)cc1OC` (stereo not drawn): 116 to 117 °C.

For `CCOC(=O)C1CCCN1C(=O)c1cc2c(cc1[N+](=O)[O-])OCO2` (stereo not drawn), the melting point is 94 °C.

`COc1cccc(C2(O)CCN(C)CC2)c1`: the melting point was 111 to 113 °C. For the molecule `[N-]=[N+]=NC(C(=O)O)C1c2ccccc2CCc2ccccc21` (stereo not drawn), the melting point fell in the range of 101 to 102 °C. `OC1(c2ccc(-c3ccc(F)cc3)cc2)CN2CCC1CC2` (stereo not drawn): the melting point is 172 to 173 °C. For `COc1ccc(CN(C)CCCCc2ccc(NC(=O)c3cccc4c(=O)c5cccc([N+](=O)[O-])c5[nH]c34)cc2)cc1OC` the value was 174 °C. For `CCCn1c(=O)c2c(nc(C=Cc3ccc(C(=O)OC)cc3OC)n2C)n(CCC)c1=O` the value was 198 to 200 °C. Turning to `Cc1[nH]c(=O)sc1C(=O)c1ccc(N(C)C)cc1`, the melting point was in the range of 224 to 226 °C. Next, `COc1cc2c(cc1Cl)CCOC2c1ccc([N+](=O)[O-])cc1` (stereo not drawn): 150 to 153 °C; `COc1cc2ncnc(N3CCN(c4ccc5c(c4)CCC(=O)N5)CC3)c2cc1OC`: 261 to 262 °C; `Nc1nc2ccc3cc(S(=O)(=O)Nc4ccc(C(=O)N[C@@H](CCC(=O)O)C(=O)O)cc4)c(Br)cc3c2c(=O)[nH]1`: 238 to 242 °C. Next, `O=C1Nc2ccc(S(=O)(=O)N3CCC[C@H]3CN3CCOCC3)cc2C1=O`: 163 to 164 °C.

`CCC1CN(C2C(=O)N(c3c(Cl)cc(Cl)cc3Cl)N=C2NC(=O)c2cccc(NC(=O)COc3ccc(C(C)(C)CC)cc3C(C)(C)CC)c2)CCC1C` (stereo not drawn) returned a melting point of 145 to 155 °C. For `Cc1ccsc1-c1nc(COc2ccc(CCCCn3ccnc3)cc2)co1`, the melting point is 88 to 89 °C. Consider `COC(=O)C(=O)c1ccc(OC/C=C/c2c(C(C)C)nc3ccccc3c2-c2ccc(F)cc2)cc1`, for which the melting point is 109 to 111 °C. Next, `COc1cc(OC)cc(C2CCCCC2=O)c1` (stereo not drawn): 61 to 62 °C; `O=C1C=C(NC(=O)C(=O)c2cn(Cc3ccc(Cl)cc3)c3ccccc23)CS1`: 248 to 250 °C. For `CCCC(CC)(C(=O)N(C)C)n1cc(C)c(-c2ccccc2)n1` (stereo not drawn) the value was 147 to 148 °C; for `CC(C)(COc1ccc(Cl)cc1)C(=O)C(CC1CCCCC1)n1cncn1` (stereo not drawn), 58 to 60 °C; for `CCc1c(C)cccc1C(=O)NC1CN2CCC1CC2` (racemic), 125 °C.

As for `CC1CC(N)=C(C#N)C1C` (stereo not drawn), the melting point was in the range of 92 to 100 °C.

Consider `COC(=O)c1cc(-c2ccc(OC)cc2)nn(Cc2ccc([N+](=O)[O-])cc2)c1=O`, for which the melting point was 215 to 217 °C. For `COc1ccc(Cn2c(=O)c(C#N)c(Cl)c3cc(Cl)cnc32)cc1` the value was 208 °C; for `O=C1Nc2ccsc2C(=O)N2CC[C@@H]12`, 274 °C; for `CC(C)(Oc1ccc(CC(=O)Nc2ccc(Cl)cc2)cc1)C(=O)O`, 163 °C. For `O=C1CCCc2ccc(OCc3ccc(Cl)c(Cl)c3)cc21` the value was 122 to 123 °C.

In turn, `CCOc1ccc(C2C(=O)Oc3ccc(C)cc32)cc1` (stereo not drawn) showed a melting point of 82 to 86 °C. Next, `CCc1cc(C(=O)Nc2ccccc2)on1`: 122 to 124 °C.

The molecule `CN(C)CCOc1ccc2ccc(N)nc2n1` registered a melting point of 105 °C. For `CCOC(=O)N1CCN(c2ncnc3[nH]ncc23)CC1` the value was 245 to 247 °C; for `COC(=O)C(=C(C)C)N1CC(N2C(=O)c3ccccc3C2=O)C1=O` (stereo not drawn), 127 to 128 °C. For `Cc1c(O)cc(N)cc1C(=O)O` the value was more than 250 °C; for `COC(=O)c1cc(C(=O)OC)cc(S(=O)(=O)Nc2ccc(F)cc2C(F)(F)F)c1`, 142 to 150 °C; for `CC1=CC(O)C(O)C(C)(C)CC1O` (stereo not drawn), 138 to 139 °C.

For the molecule `N=C(Nc1cc(Cl)cc(NC(=O)/C=C/c2ccccc2Cl)c1)c1ccccc1`, the melting point lay in the range of 105 to 115 °C. `CN1C(=O)C(CCCCNC(=O)OCc2ccccc2)NC1=S` (stereo not drawn) came in with a melting point of 135 °C.

`O=C(Nc1ccc2[nH]c(=O)oc2c1)C(=O)N1CCC(Cc2ccc(C(F)(F)F)cc2)CC1` had a melting point of 217 °C. `O=C(O)CCc1ccccc1OCCCCCOc1ccc2c(c1CCCc1ccccc1)OCCC2=O` registered a melting point of 98 to 99 °C. For `COC(=O)COc1ccc(C=O)cc1` the value was 39 to 41 °C. Next, `O=C(NNC(=O)c1ccc(Oc2ccccc2)cc1)c1ccc(O)cc1`: 203 to 205 °C. Turning to `CC(F)=C1CCC2C3CC=C4CC(O[Si](C)(C)C(C)(C)C)CCC4(C)C3CCC12C` (stereo not drawn), the melting point lay within 128 to 130 °C. Next, `O=[N+]([O-])c1cccc(Cn2c(-c3ccc4c(c3)OCO4)nc3ccccc32)c1`: 70.2 to 73 °C; `CN1CC(CCCl)Oc2cc3ccccc3nc2C1=S` (stereo not drawn): 114 to 116 °C; `COC(=O)c1ccccc1S(=O)(=O)NC(=O)Nc1nnc(SC)n(C)c1=O`: 186 to 187 °C. With `O=C(O)c1ncc(Br)cc1Br`, the melting point fell in the range of 170 to 171 °C. For `O=c1c(Br)cc(-c2ccncn2)cn1Cc1ccccc1` the value was 189 to 192 °C. Next, `CC(C)=CCN1c2ccccc2NC(=O)C1(C)C`: 146 to 147 °C; `COc1ccccc1C(=O)c1cccc(N)c1`: 81 °C; `CC(=O)N(C)c1ccc(N(CCCCN(c2ccc(N(C)C(C)=O)cc2)S(=O)(=O)c2ccccc2)S(=O)(=O)c2ccccc2)cc1`: 235 °C. Next, `CN1CCC(c2c[nH]c3ccc(NC(=O)c4ccc5ccccc5c4)cc23)CC1`: 153 to 156 °C; `CC(=O)c1cc2c(s1)SCCc1cc(=O)n(-c3ccc(Cl)cc3)nc1-2`: 248 to 250 °C. Molecule `CCN(c1nc(C)cc(C(=O)c2nccs2)n1)c1ccc(C(C)C)cc1Br` displayed a melting point of 97 to 98.5 °C. `COc1ccc(NC(=N)c2cccs2)cc1CO` came in with a melting point of 191 to 192 °C. Next, `CC(CO)NC(=O)COc1ccc(CCNS(=O)(=O)c2ccccc2)cc1` (stereo not drawn): 90 to 91 °C; `O=C(NC1CCOCC1)c1cccc(-c2cccc3oc(Cc4cccc(C(F)(F)F)c4)cc23)c1`: 107 to 108 °C; `CC(=O)OC1CSC(Oc2cncc(-c3ccc(C#N)c(C)c3)c2)C(OC(C)=O)C1OC(C)=O` (stereo not drawn): 74 to 80 °C. For `Cc1cccc(-c2n[nH]cc2-c2ccc(F)c(-c3ccc(N4CCN(C)CC4)nc3)c2)n1` the value was 86 °C; for `COc1ccc(C(=O)N2c3ccccc3C(N3CCc4ccccc43)CC2C)cc1OC` (stereo not drawn), 147 to 148 °C.

For `Cn1ccc2cc(-c3csc4ncnc(NCc5ccccn5)c34)ccc21`, the melting point is 184 to 185 °C. `CCCc1cc(C(=O)O)cc(CCC)c1OCCCCCCc1cccc(O)c1O` returned a melting point of 94 to 96 °C. Turning to `COC(=O)CCCc1cc2nc(C)ccc2n1S(=O)(=O)c1ccccc1`, the melting point was in the range of 91 to 94 °C.

Molecule `CCOC(=O)c1sc(Br)c(Br)c1Cl` registered a melting point of 58 to 63 °C. For `COc1cc(SCc2ccccc2)c([N+](=O)[O-])cc1OC` the value was 174 to 176 °C; for `COc1cc(C)cc2nc(S(=O)(=O)Nc3c(Cl)cccc3Cl)nn12`, 269 to 270 °C; for `CCOC(=O)C1=C(C)NC(C#N)=C(C(=O)OCC)C1c1cccc([N+](=O)[O-])c1` (stereo not drawn), 174 to 177 °C. Turning to `CNc1nc(C)c(C)cc1NC(=O)N1CCN(c2cc(C)cc(C)c2)CC1`, the melting point is 160 to 162 °C.
